pEC50, pKi: −log10 of the molar value.
Columns and labels:
[1] = target: T1, Melanocortin receptor 4 (Homo sapiens, UniProt P32245); experiment: Binding affinity to human MC4R
[2] = target: T2, Melanocyte-stimulating hormone receptor (Homo sapiens, UniProt Q01726); experiment: Agonist activity at human MC1R; type: functional
[3] = target: T3, Melanocortin receptor 3 (Homo sapiens, UniProt P41968); experiment: Agonist activity at human MC3R; type: functional
[4] = target: T2, Melanocyte-stimulating hormone receptor; experiment: Binding affinity to human MC1R
[5] = target: T1, Melanocortin receptor 4; experiment: Agonist activity at human MC4R; type: functional
[6] = target: T3, Melanocortin receptor 3; experiment: Binding affinity to human MC3R
[7] = target: Melanocortin receptor (M1 and M4) (Homo sapiens) (UniProt P32245+Q01726); experiment: Selectivity for human MC4R over MC1R; type: protein assay
[8] = target: Melanocortin receptor (M3 and M4) (Homo sapiens) (UniProt P32245+P41968); experiment: Selectivity for human MC4R over MC3R; type: protein assay

T3 sequence (P41968 whole entry): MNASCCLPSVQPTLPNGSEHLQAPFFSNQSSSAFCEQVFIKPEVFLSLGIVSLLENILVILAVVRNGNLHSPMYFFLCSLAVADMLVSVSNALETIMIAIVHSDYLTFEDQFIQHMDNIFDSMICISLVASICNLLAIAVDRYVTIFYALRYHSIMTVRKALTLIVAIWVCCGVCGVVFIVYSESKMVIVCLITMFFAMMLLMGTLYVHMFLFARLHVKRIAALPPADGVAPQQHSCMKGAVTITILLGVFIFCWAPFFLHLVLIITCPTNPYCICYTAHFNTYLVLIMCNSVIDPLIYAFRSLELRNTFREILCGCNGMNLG
T2 sequence (Q01726 whole entry): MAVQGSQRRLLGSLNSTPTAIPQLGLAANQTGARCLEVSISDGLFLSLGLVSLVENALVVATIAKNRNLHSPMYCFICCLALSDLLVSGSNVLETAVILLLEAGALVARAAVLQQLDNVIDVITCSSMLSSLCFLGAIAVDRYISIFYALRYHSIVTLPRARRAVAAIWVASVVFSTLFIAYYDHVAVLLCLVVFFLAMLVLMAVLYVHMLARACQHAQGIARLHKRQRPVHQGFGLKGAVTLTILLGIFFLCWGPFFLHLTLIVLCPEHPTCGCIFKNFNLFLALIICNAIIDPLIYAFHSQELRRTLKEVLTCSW
T1 sequence (P32245 whole entry): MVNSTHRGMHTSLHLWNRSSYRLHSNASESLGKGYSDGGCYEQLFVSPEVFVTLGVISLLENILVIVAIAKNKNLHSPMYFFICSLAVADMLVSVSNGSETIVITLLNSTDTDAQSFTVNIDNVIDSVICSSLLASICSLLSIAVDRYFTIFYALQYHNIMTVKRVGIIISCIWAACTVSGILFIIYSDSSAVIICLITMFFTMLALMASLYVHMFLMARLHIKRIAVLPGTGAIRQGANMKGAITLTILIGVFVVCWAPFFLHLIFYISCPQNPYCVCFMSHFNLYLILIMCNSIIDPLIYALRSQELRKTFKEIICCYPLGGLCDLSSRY

SMILES | pKi [1] | pEC50 [2] | pEC50 [3] | pKi [4] | pEC50 [5] | pKi [6] | Selectivity ratio [7] | Selectivity ratio [8]
CNC(=O)[C@H](Cc1ccc2ccccc2c1)N1CCN(C(=O)[C@@H](Cc2ccccc2)NC(=O)[C@H](Cc2ccc(O)cc2)NC(C)=O)[C@@H](CCCN=C(N)N)C1=O | 9.22 | 8.77 | 9.00 | 9.00 | 9.70 | 9.00 |  | 
CNC(=O)[C@H](Cc1ccc2ccccc2c1)N1CCN(C(=O)[C@H](N)Cc2ccc(F)cc2)[C@@H](CCCN=C(N)N)C1=O | 8.15 | 6.50 | 7.43 | 6.44 | 8.80 | 7.12 |  | 
CNC(=O)[C@H](Cc1ccc2ccccc2c1)N1CCN(C(=O)[C@H](N)Cc2ccc(F)cc2)[C@@H](CCNC(N)=O)C1=O | 6.44 |  |  | 4.66 | 7.74 | 5.21 |  | 
CNC(=O)[C@H](Cc1ccc2ccccc2c1)N1CCN(C(=O)[C@H](N)Cc2ccc(F)cc2)[C@@H](CCCNC(N)=O)C1=O | 6.58 |  |  | 5.67 | 7.92 | 6.34 |  | 
CNC(=O)[C@H](Cc1ccc2ccccc2c1)N1CCN(C(=O)CCc2ccc(F)cc2)[C@@H](CCCN=C(N)N)C1=O | 8.28 | 5.86 | 6.85 | 6.02 | 8.05 | 6.69 |  | 
CNC(=O)[C@H](Cc1ccc2ccccc2c1)N1CCN(C(=O)[C@@H](Cc2ccc(F)cc2)NC(C)=O)[C@@H](CCCN=C(N)N)C1=O | 8.89 | 8.64 | 8.00 | 7.74 | 9.30 | 8.15 |  | 
CNC(=O)[C@H](Cc1ccc2ccccc2c1)N1CCN(C(=O)[C@@H](Cc2ccc(F)cc2)NC(=O)[C@H](Cc2cnc[nH]2)NC(C)=O)[C@@H](CCCN=C(N)N)C1=O | 8.30 | 8.77 | 8.22 | 8.70 | 8.70 | 7.46 |  | 
CNC(=O)[C@H](Cc1ccc2ccccc2c1)N1CCN(C(=O)[C@@H](Cc2ccc(F)cc2)NC(=O)[C@H](Cc2ccc(O)cc2)NC(C)=O)[C@@H](CCCN=C(N)N)C1=O | 9.40 | 7.52 | 8.70 | 7.85 | 8.06 | 8.96 |  | 
CNC(=O)[C@H](Cc1ccc2ccccc2c1)N1CCN(C(=O)[C@@H](Cc2ccc(F)cc2)NC(=O)C2Cc3ccccc3CN2)[C@@H](CCCN=C(N)N)C1=O (stereo partly specified) | 8.22 | 6.98 | 6.79 | 6.50 | 8.80 | 6.45 |  | 
CNC(=O)[C@H](Cc1ccc2ccccc2c1)N1CCN(C(=O)[C@@H](Cc2ccccc2)NC(=O)[C@H](Cc2c[nH]cn2)NC(C)=O)[C@@H](CCCN=C(N)N)C1=O | 9.10 | 10.15 | 9.40 | 9.40 | 9.52 | 9.00 |  | 
CNC(=O)[C@H](Cc1ccc2ccccc2c1)N1CCN(C(=O)[C@@H](Cc2ccc(F)cc2)NC(=O)[C@H](CCC(N)=O)NC(C)=O)[C@@H](CCCN=C(N)N)C1=O | 8.96 | 9.43 | 9.30 | 8.70 | 9.47 | 8.48 |  | 
CNC(=O)[C@H](Cc1ccc2ccccc2c1)N1CCN(C(=O)[C@H](N)Cc2ccccc2)[C@@H](CCCN=C(N)N)C1=O | 8.24 | 6.28 | 7.39 | 6.18 | 8.77 | 6.62 | 116 | 42
CNC(=O)[C@H](Cc1ccc2ccccc2c1)NC(=O)[C@H](CCCN=C(N)N)NC(=O)[C@H](N)Cc1ccc(F)cc1 | 6.65 | 4.66 | 4.70 | 5.39 | 6.85 | 5.94 |  | 
